Values of other authors, collected in PMC10957545, “Anti-diabetic and anti-inflammatory bioactive hits from Coriaria intermedia Matsum. stem and Dracontomelon dao (Blanco) Merr. & Rolfe bark through bioassay-guided fractionation and liquid chromatography-tandem mass spectrometry” (Frontiers in Pharmacology, 2024).
Converted amounts (≈) assume the structure as drawn. Read-outs that look alike come from different tables or passages of the source.

Columns and labels:
[1] = system: lipopolysaccharide (LPS)-induced nitric oxide (NO), prostaglandin E2 (PGE2), and interleukin-6 (IL-6) production; design: method as in BenSaad et al., 2017; settings: ref BenSaad et al., 2017
sucrase = system: sucrase; design: method as in Kato et al., 2008; settings: at a concentration of 400 µM; ref Kato et al., 2008
maltase = system: maltase; design: method as in Kato et al., 2008; settings: at a concentration of 400 µM; ref Kato et al., 2008
α-amylase = system: α-amylase; design: method as in Kato et al., 2008; settings: at a concentration of 400 µM; ref Kato et al., 2008
[2] = system: advanced glycation end products formation; design: method as in Jung et al., 2012; settings: ref Jung et al., 2012; read-out: inhibition of advanced glycation end products formation, IC50
[3] = system: streptozotocin-induced diabetic rats; design: method as in Nandini and Naik, 2019; settings: treated orally, end of the study; ref Nandini and Naik, 2019
[4] = system: mice fed with a high fat diet (HFD); design: method as in Liao et al., 2022; settings: ref Liao et al., 2022
[5] = system: different cancer cell lines; design: method as in Li et al., 2018; settings: both in vitro and in vivo; ref Li et al., 2018
[6] = system: ovalbumin-induced asthmatic mice; design: method as in Jin and Yi, 2023; settings: via the AMP-activated protein kinase pathway; ref Jin and Yi, 2023
[7] = system: spike receptor binding domain (spike-RBD) of SARS-CoV-2 virus / human angiotensin-converting enzyme 2 (hACE2); design: method as in Yang et al., 2021; settings: dose-dependent manner; ref Yang et al., 2021
[8] = system: proinflammatory cytokines and mediators; cyclooxygenase-2 expression; design: method as in Zhao et al., 2008, as cited in Li et al. (2018); settings: ref Zhao et al., 2008, as cited in Li et al. (2018)
[9] = system: LPS-induced nuclear factor kappa B (NF-κB) activation; design: method as in Oh et al., 2010; settings: ref Oh et al., 2010
[10] = system: p38, ERK, and PI 3-kinase/Akt and ROS accumulation; design: method as in Moon et al., 2018; settings: ref Moon et al., 2018
neuroinflammation = system: neuroinflammation; design: method as in Jeon et al., 2020; settings: abscisic acid intake; ref Jeon et al., 2020
beta pancreatic cells = system: beta pancreatic cells; design: method as in Xu et al., 2018; settings: ref Xu et al., 2018
colon inflammation = system: colon inflammation; design: method as in Guri et al., 2011; settings: abscisic acid intake; ref Guri et al., 2011
glucose uptake = system: glucose uptake; design: method as in Xu et al., 2018; settings: ref Xu et al., 2018
[11] = isolated from Terminalia macroptera leaves, ref Pham et al., 2014

O=c1oc2c(O)c(O)cc3c(=O)oc4c(O)c(O)cc1c4c23 [Compound 1, ellagic acid]
IC50 AGLUC (α-glucosidase (AGLUC); previously reported, ref You et al., 2012): 2.18 [You et al. (2012)] µg/mL | effect on LPS-induced NO, PGE2 and IL-6 production [1]: inhibition

COc1cc2oc(=O)ccc2cc1O [Compound 4, isoscopoletin]
% inhibition of sucrase (sucrase): 20.9% | % inhibition of maltase (maltase): 32.2% | % inhibition of α-amylase (α-amylase): 0.2% | IC50 [2]: 18.8 ± 0.5 µM | IC50 (15-lipoxygenase-1 (LOX); ref Deng et al., 2007): 15.1 µM | IC50 LOX (15-lipoxygenase-1 (LOX); µM value given in µg/mL, ref Deng et al., 2007): 2.902 [Deng et al. (2007)] µg/mL

O=c1c(O[C@@H]2O[C@H](CO)[C@H](O)[C@H](O)[C@H]2O)c(-c2ccc(O)c(O)c2)oc2cc(O)cc(O)c12 [hyperin, reference compound]
IC50 AGLUC (α-glucosidase (AGLUC); ref Zhang et al., 2013): 19.26 µg/mL (≈ 41.5 µM)

O=C(O[C@@H]1O[C@@H]2COC(=O)c3cc(O)c(O)c(O)c3-c3c(cc(O)c(O)c3O)C(=O)O[C@H]([C@H]1O)[C@@H]2O)c1cc(O)c(O)c(O)c1 [Compound 2, corilagin]
IC50 (α-glucosidase (AGLUC); [11]): 2.58 ± 0.08 µM | fasting blood glucose levels compared to diabetic control rats [3]: reduced | glucose intolerance and insulin resistance ([4]; HFD-fed mice): improve | plasma lipid concentrations ([4]; HFD-fed mice): improved | HFD-induced accumulation of fat in the liver and liver injury [4]: reduce | antitumor activities [5]: exhibit antitumor activities | airway inflammation and collagen deposition [6]: reduce | binding of spike-RBD to hACE2 [7]: inhibit | IC50 (15-lipoxygenase-1 (LOX); [11]): 41 ± 4 µM | IC50 LOX (15-lipoxygenase-1 (LOX); µM value given in µg/mL, ref Pham et al., 2014): 26.01 ± 2.5 [Pham et al. (2014)] µg/mL | toxic effects on normal cells or tissues (normal cells or tissues): almost no toxic effects | effect on cyclooxygenase-2 expression ([8]; protein and gene level): reduce | effect on production of proinflammatory cytokines and mediators [8]: significantly reduce

Oc1cccc(O)c1O [Compound 14, pyrogallol]
IC50 LOX (15-lipoxygenase-1 (LOX); mM value given in µg/mL, ref Yasumoto et al. (1970)): 1.097 × 10^3 [Yasumoto et al. (1970)] µg/mL | IC50 (15-lipoxygenase-1 (LOX); ref Yasumoto, Yamamoto, and Mitsuda, 1970): 8700 µM

CCCCCCCC/C=C\CCCCCCCC(N)=O [Compound 6, oleamide]
IC50 AGLUC (α-glucosidase (AGLUC); ref Fang et al., 2022): 30.69 ± 1.47 [Fang et al. (2022)] µg/mL | effect on LPS-induced NF-κB activation [9]: inhibition | effect on p38, ERK, and PI 3-kinase/Akt and ROS accumulation [10]: suppression

CC1=CC(=O)CC(C)(C)[C@@]1(O)/C=C/C(C)=C\C(=O)O [Compound 9, abscisic acid]
effect on neuroinflammation (neuroinflammation): reduces | effect on insulin production in beta pancreatic cells (beta pancreatic cells): can stimulate | effect on colon inflammation (colon inflammation): reduces | effect on glucose uptake in vitro (glucose uptake): regulates
